ChEMBL document CHEMBL1128931, “Synthesis and biological evaluation of pyrido[2,3-b]pyrazine and pyrido[2,3-b]pyrazine-n-oxide as selective glycine antagonists” (Bioorg Med Chem Lett, 1996)

How the values were obtained:
[1] = target: Glutamate receptor ionotropic, NMDA 1 (Rattus norvegicus, UniProt P35439); test: In vitro binding affinity for glycine site on the NMDA receptor.
Rattus norvegicus [2] = test: Compound was evaluated in vivo for antagonistic activity against glycine site in NMDA induced convulsion model in rats after ip administration.; type: functional
Rattus norvegicus [3] = test: Compound was evaluated in vivo for antagonistic activity against glycine site in NMDA induced convulsion model in rats after iv administration.; type: functional

Question: Which Ki [1] does the source give for `Oc1nc2ccc(Cl)nc2nc1O` here?
Answer: Its Ki is 6170 nM.

Question: `Cc1nc2nc(O)c(O)nc2cc1I` was tested. Which Ki [1] did it give?
Answer: Its Ki is 468 nM.

Question: `[O-][n+]1c(Cl)ccc2nc(O)c(O)nc21` was tested. Which Ki [1] did it give?
Answer: Its Ki is 4680 nM.

Question: How did the Ki [1] turn out when `Cc1c(Br)c(Cl)[n+]([O-])c2nc(O)c(O)nc12` was run?
Answer: The Ki was 3020 nM.

Question: For `[O-][n+]1c(Cl)c(Cl)cc2nc(O)c(O)nc21`, which ED50 (Rattus norvegicus [2]) is on record?
Answer: The ED50 was 24 mg/kg.

Question: What about the ED50 (Rattus norvegicus [3]) of the same compound?
Answer: The ED50 was 14 mg/kg.

Question: And the Ki [1]?
Answer: Its Ki is 112 nM.

Question: How did the ED50 (Rattus norvegicus [2]) turn out when `Oc1nc2cc(Cl)c(Cl)nc2nc1O` was run?
Answer: Its ED50 is 41 mg/kg.

Question: What about the ED50 (Rattus norvegicus [3]) of the same compound?
Answer: Its ED50 is 0.7 mg/kg.

Question: And the Ki [1]?
Answer: The Ki was 186 nM.

Question: How did the Ki [1] turn out when `Oc1nc2cc(I)c(Cl)nc2nc1O` was run?
Answer: The Ki was 204 nM.

Question: Which Ki [1] does the source give for `CCCc1nc2nc(O)c(O)nc2c(C)c1Cl` here?
Answer: Its Ki is 2750 nM.

Question: Which Ki [1] does the source give for `Oc1nc2nc(Cl)c(Cl)c(Cl)c2nc1O` here?
Answer: Its Ki is 110 nM.

Question: `[O-][n+]1cc(C(F)(F)F)c(Cl)c2nc(O)c(O)nc21` was tested. Which ED50 (Rattus norvegicus [2]) did it give?
Answer: The ED50 was 50 mg/kg.

Question: And the Ki [1]?
Answer: The Ki was 3720 nM.

Question: What does the source list for `Cc1c(Cl)cnc2nc(O)c(O)nc12`?
Answer: ED50 (Rattus norvegicus [2]): 20 mg/kg; Ki [1]: 2880 nM

Question: With `Cc1c(I)c[n+]([O-])c2nc(O)c(O)nc12` as the compound, how does the ED50 (Rattus norvegicus [2]) read?
Answer: The ED50 was 30 mg/kg.

Question: And the Ki [1]?
Answer: Its Ki is 912 nM.

Question: Which ED50 (Rattus norvegicus [3]) does the source give for `Cc1c(Br)c(Cl)nc2nc(O)c(O)nc12` here?
Answer: The ED50 was 10 mg/kg.

Question: And the Ki [1]?
Answer: The Ki was 282 nM.

Question: Which results are given for `Cc1c(Br)c[n+]([O-])c2nc(O)c(O)nc12`?
Answer: ED50 (Rattus norvegicus [2]): 9 mg/kg; ED50 (Rattus norvegicus [3]): 5 mg/kg; Ki [1]: 537 nM

Question: `Oc1nc2cc(C(F)(F)F)cnc2nc1O` was tested. Which ED50 (Rattus norvegicus [2]) did it give?
Answer: The ED50 was 27 mg/kg.

Question: What about the ED50 (Rattus norvegicus [3]) of the same compound?
Answer: The ED50 was 13 mg/kg.

Question: What about the Ki [1] of the same compound?
Answer: The Ki was 501 nM.

Question: With `[O-][n+]1cc(I)cc2nc(O)c(O)nc21` as the compound, how does the ED50 (Rattus norvegicus [2]) read?
Answer: Its ED50 is 21 mg/kg.

Question: And the Ki [1]?
Answer: Its Ki is 741 nM.

Question: Which Ki [1] does the source give for `Cc1nc2nc(O)c(O)nc2c(C)c1Cl` here?
Answer: Its Ki is 813 nM.

Question: `Cc1c(Cl)c[n+]([O-])c2nc(O)c(O)nc12` was tested. Which ED50 (Rattus norvegicus [2]) did it give?
Answer: Its ED50 is 7 mg/kg.

Question: What about the ED50 (Rattus norvegicus [3]) of the same compound?
Answer: The ED50 was 3 mg/kg.

Question: And the Ki [1]?
Answer: The Ki was 372 nM.

Question: `Cc1c(Cl)c(Cl)nc2nc(O)c(O)nc12` was tested. Which Ki [1] did it give?
Answer: Its Ki is 191 nM.

Question: Which Ki [1] does the source give for `Cc1c(I)cc2nc(O)c(O)nc2[n+]1[O-]` here?
Answer: The Ki was 224 nM.

Question: Which ED50 (Rattus norvegicus [2]) does the source give for `[O-][n+]1c(Cl)c(Br)cc2nc(O)c(O)nc21` here?
Answer: Its ED50 is 45 mg/kg.

Question: And the ED50 (Rattus norvegicus [3])?
Answer: Its ED50 is 18 mg/kg.

Question: And the Ki [1]?
Answer: Its Ki is 112 nM.

Question: What does the source list for `Oc1nc2cc(C(F)(F)F)c(Cl)nc2nc1O`?
Answer: ED50 (Rattus norvegicus [3]): 15 mg/kg; Ki [1]: 427 nM

Question: `[O-][n+]1cc(C(F)(F)F)cc2nc(O)c(O)nc21` was tested. Which ED50 (Rattus norvegicus [3]) did it give?
Answer: Its ED50 is 15 mg/kg.

Question: And the Ki [1]?
Answer: Its Ki is 427 nM.

Question: `Cc1c(I)cnc2nc(O)c(O)nc12` was tested. Which Ki [1] did it give?
Answer: The Ki was 1780 nM.

Question: `Cc1c(Br)cnc2nc(O)c(O)nc12` was tested. Which Ki [1] did it give?
Answer: Its Ki is 1580 nM.

Question: With `[O-][n+]1cc(Cl)cc2nc(O)c(O)nc21` as the compound, how does the Ki [1] read?
Answer: Its Ki is 513 nM.

Question: For `[O-][n+]1c(Cl)c(C(F)(F)F)cc2nc(O)c(O)nc21`, which ED50 (Rattus norvegicus [2]) is on record?
Answer: The ED50 was 60 mg/kg.

Question: And the ED50 (Rattus norvegicus [3])?
Answer: The ED50 was 30 mg/kg.

Question: What about the Ki [1] of the same compound?
Answer: Its Ki is 513 nM.

Question: Which Ki [1] does the source give for `Oc1nc2ncc(C(F)(F)F)c(Cl)c2nc1O` here?
Answer: Its Ki is 1580 nM.

Question: How did the Ki [1] turn out when `CCCc1nc2nc(O)c(O)nc2cc1Cl` was run?
Answer: Its Ki is 1510 nM.

Question: `Cc1c(Cl)c(Cl)[n+]([O-])c2nc(O)c(O)nc12` was tested. Which ED50 (Rattus norvegicus [2]) did it give?
Answer: The ED50 was 30 mg/kg.

Question: And the Ki [1]?
Answer: The Ki was 3160 nM.

Question: For `[O-][n+]1c(Cl)c(I)cc2nc(O)c(O)nc21`, which Ki [1] is on record?
Answer: Its Ki is 209 nM.

Question: With `Oc1nc2cc(Br)c(Cl)nc2nc1O` as the compound, how does the ED50 (Rattus norvegicus [2]) read?
Answer: The ED50 was 100 mg/kg.

Question: And the ED50 (Rattus norvegicus [3])?
Answer: The ED50 was 20 mg/kg.

Question: Which Ki [1] does the source give for `CCCc1c(Cl)cc2nc(O)c(O)nc2[n+]1[O-]` here?
Answer: The Ki was 457 nM.
